A word on the IC50: it is the concentration at which inhibition is half-maximal.

A value given as a limit tells only on which side of the number the result lay.

The values that follow come from US20250129021A1, “SMALL MOLECULE PROTEIN SYNTHESIS MODULATORS” (Interdict Bio, Inc., priority 2023, published 2025).

What all share (assay type): biochemical
One assay has as its system MYC. The experiment in a line: In vitro transcription-translation (IVTT) assay, MYC reporter. The following applies: IVTT assay, HeLa S3 lysate, MYC reporter, normalized sfGFP/mCherry ratio; half-log dilutions 30 μM-0.1 μM, 2 hrs at 30° C. In a few lines: (§1)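 Reporter: mCherry, P2A, then 3×FLAG-target peptide-sfGFP fusion, IRES-initiated; HeLa S3 lysate IVTT; cpd dilutions 30 μM−0.1 μM half-log in 100% DMSO (dilution-plate conc); DNA added last; 2 h, 30° C; PBS quench.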

The test system of a further assay is CCND1. Description: In vitro transcription-translation (IVTT) assay, CCND1 reporter. The following applies: IVTT, HeLa S3 lysate, 2 hrs at 30° C. In a few lines:
as §1

The subject of another assay is MCL-1. The experiment in a line: In vitro transcription-translation (IVTT) assay, MCL-1 reporter. The following applies: IVTT, HeLa S3 lysate, 2 hrs at 30° C.; read-out: MCL1 IC50. In a few lines:
as §1

The test system of the next assay is CCNTB1. Description: In vitro transcription-translation (IVTT) assay, CCNTB1 reporter. The conditions noted are these: HeLa S3 lysate, 2 hrs at 30° C. In a few lines: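 HeLa S3 lysate-based coupled transcription-translation reactions with reporter plasmids, compounds in half-log dilutions (30 μM−0.1 μM, in DMSO), 2 h at 30° C. sfGFP/mCherry ratio, corrected for no-DNA background, normalized to no-drug control and fitted for IC50.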

With `O=C(NCC[C@@H]1CCCN1)O[C@@H]1[C@@H](O)CN[C@@H]1Cc1ccc(-c2ccccc2)cc1` [V190505, (2R,3S,4S)-2-{[1,1′-biphenyl]-4-ylmethyl}-4-hydroxypyrrolidin-3-yl N-{2-[(2S)-pyrrolidin-2-yl]ethyl}carbamate], the IC50 with MYC, in the assay on CCND1, with MCL-1 and with CCNTB1 was below 10 µM each time.

On to `COc1ccc(C[C@H]2NC[C@H](O)[C@H]2OC(=O)NCCn2nc(C)cc2C)cc1` [V190415, (2R,3S,4S)-4-hydroxy-2-[(4-methoxyphenyl)methyl]pyrrolidin-3-yl N-[2-(3,5-dimethylpyrazol-1-yl)ethyl]carbamate], for which the IC50 in the assay with MYC, in the assay with CCND1, with MCL-1 and with CCNTB1 was above 30 µM each time.

With `COc1ccc(C[C@H]2NC[C@H](O)[C@H]2OC(=O)NCC=C(C)C)cc1` [V190411, (2R,3S,4S)-4-hydroxy-2-[(4-methoxyphenyl)methyl]pyrrolidin-3-yl N-(3-methylbut-2-en-1-yl)carbamate], the IC50 is 10 to 20 µM in the assay on MYC, 10 to 20 µM with CCND1, 10 to 20 µM in the assay with MCL-1 and below 10 µM with CCNTB1.

With `CC(F)(F)c1ccc(C[C@H]2NC[C@H](O)[C@H]2OC(=O)NCC[C@@H]2CCCN2)cc1` [V191885, (2R,3S,4S)-2-{[4-(1,1-difluoroethyl)phenyl]methyl}-4-hydroxypyrrolidin-3-yl N-{2-[(2S)-pyrrolidin-2-yl]ethyl}carbamate], the IC50 in the assay with MYC is below 10 µM; in the assay with CCND1 it was 10 to 20 µM; in the assay with MCL-1, below 10 µM; with CCNTB1, below 10 µM.

Regarding `COc1ccc(C[C@H]2NC[C@H](O)[C@H]2OC(=O)NCC23CC(N)(C2)C3)cc1` [V188323, (2R,3S,4S)-4-hydroxy-2-[(4-methoxyphenyl)methyl]pyrrolidin-3-yl N-({3-aminobicyclo[1.1.1]pentan-1-yl}methyl)carbamate], the IC50 was 10 to 20 µM in the assay with MYC, 20 to 30 µM in the assay on CCND1, 20 to 30 µM with MCL-1 and below 10 µM with CCNTB1.

As for `O=C(NCc1cccc(F)c1)O[C@@H]1[C@@H](O)CN[C@@H]1Cc1ccc(F)cc1` [V190506, (2R,3S,4S)-2-[(4-fluorophenyl)methyl]-4-hydroxypyrrolidin-3-yl N-[(3-fluorophenyl)methyl]carbamate], the 50% inhibitory concentration (IC50) in the assay with MYC is below 10 µM; with CCND1, 10 to 20 µM; in the assay with MCL-1, below 10 µM; in the assay on CCNTB1 it was below 10 µM.

As to `COc1ccc(C[C@H]2NC[C@H](O)[C@H]2OC(=O)NCC[C@@H]2CCCCN2)cc1` [V191902, (2R,3S,4S)-4-hydroxy-2-[(4-methoxyphenyl)methyl]pyrrolidin-3-yl N-{2-[(2S)-piperidin-2-yl]ethyl}carbamate], the IC50 was 10 to 20 µM in the assay with MYC, above 30 µM in the assay on CCND1, above 30 µM with MCL-1 and 10 to 20 µM with CCNTB1.

In the case of `O=C(NCc1ccccc1)O[C@@H]1[C@@H](O)CN[C@@H]1Cc1ccc(C2CC2)cc1` [V188329, (2R,3S,4S)-2-[(4-cyclopropylphenyl)methyl]-4-hydroxypyrrolidin-3-yl N-benzylcarbamate], the 50% inhibitory concentration (IC50) with MYC, with CCND1, in the assay on MCL-1 and in the assay on CCNTB1 was below 10 µM in each case.

For the compound `CC(F)(F)c1ccc(C[C@H]2NC[C@H](O)[C@H]2OC(=O)NCc2cccc(F)c2)cc1` [V190547, (2R,3S,4S)-2-{[4-(1,1-difluoroethyl)phenyl]methyl}-4-hydroxypyrrolidin-3-yl N-[(3-fluorophenyl)methyl]carbamate], the concentration for half-maximal inhibition (IC50) with MYC was below 10 µM; in the assay with CCND1 it was 20 to 30 µM; in the assay with MCL-1, below 10 µM; with CCNTB1, below 10 µM.

Regarding `COc1ccc(C[C@H]2NC[C@H](O)[C@H]2OC(=O)NCC(=O)NCC(=O)O)cc1` [V188018, {2-[({[(2R,3S,4S)-4-hydroxy-2-[(4-methoxyphenyl)methyl]pyrrolidin-3-yl]oxy}carbonyl)amino]acetamido}acetic Acid], the IC50 in the assay with MYC was 10 to 20 µM; in the assay with CCND1, above 30 µM; with MCL-1, above 30 µM; in the assay on CCNTB1 it was above 30 µM.

Regarding `COc1ccc(C[C@H]2NC[C@H](O)[C@H]2OC(=O)NCC23CC(C2)C3)cc1` [V188324, (2R,3S,4S)-4-hydroxy-2-[(4-methoxyphenyl)methyl]pyrrolidin-3-yl N-{bicyclo[1.1.1]pentan-1-ylmethyl}carbamate], the concentration for half-maximal inhibition (IC50) with MYC was 10 to 20 µM; in the assay on CCND1, 10 to 20 µM; with MCL-1, 10 to 20 µM; with CCNTB1, below 10 µM.

Consider `COc1ccc(C[C@H]2NC[C@H](O)[C@H]2OC(=O)NC2CC3(CCNC3)C2)cc1` (stereo partly drawn) [V190538, (2R,3S,4S)-4-hydroxy-2-[(4-methoxyphenyl)methyl]pyrrolidin-3-yl N-{6-azaspiro[3.4]octan-2-yl}carbamate], for which the half-inhibitory concentration (IC50) in the assay with MYC, in the assay on CCND1, in the assay with MCL-1 and with CCNTB1 was above 30 µM each time.

Consider `COc1ccc(C[C@H]2NC[C@H](O)[C@H]2OC(=O)NCc2ccc(C(N)=O)cc2)cc1` [V188296, (2R,3S,4S)-4-hydroxy-2-[(4-methoxyphenyl)methyl]pyrrolidin-3-yl N-[(4-carbamoylphenyl)methyl]carbamate], for which the IC50 with MYC, in the assay on CCND1, in the assay with MCL-1 and in the assay with CCNTB1 was below 10 µM in each case.

For the compound `COc1ccc(C[C@H]2NC[C@H](O)[C@H]2OC(=O)NCCC(C)(C)O)cc1` [V190413, (2R,3S,4S)-4-hydroxy-2-[(4-methoxyphenyl)methyl]pyrrolidin-3-yl N-(3-hydroxy-3-methylbutyl)carbamate], the IC50 was 10 to 20 µM with MYC, 20 to 30 µM in the assay on CCND1, 10 to 20 µM in the assay on MCL-1 and below 10 µM with CCNTB1.

As for `COc1ccc(C[C@H]2NC[C@H](O)[C@H]2OC(=O)NCc2ccc(Cl)s2)cc1` [V188373, (2R,3S,4S)-4-hydroxy-2-[(4-methoxyphenyl)methyl]pyrrolidin-3-yl N-[(5-chlorothiophen-2-yl)methyl]carbamate], the IC50 with MYC, in the assay with CCND1, in the assay on MCL-1 and in the assay with CCNTB1 was below 10 µM each time.

Take `COc1ccc(C[C@H]2NC[C@H](O)[C@H]2OC(=O)NCc2ccc(NS(C)(=O)=O)cc2)cc1` [V191955, (2R,3S,4S)-4-hydroxy-2-[(4-methoxyphenyl)methyl]pyrrolidin-3-yl N-[(4-methanesulfonamidophenyl)methyl]carbamate]: the half-inhibitory concentration (IC50) in the assay on MYC, in the assay on CCND1, in the assay on MCL-1 and in the assay on CCNTB1 was below 10 µM each time.

With `COc1ccc(C[C@H]2NC[C@H](O)[C@H]2OC(=O)NCc2ccc(N)nn2)cc1` [V188311, (2R,3S,4S)-4-hydroxy-2-[(4-methoxyphenyl)methyl]pyrrolidin-3-yl N-[(6-aminopyridazine-3-yl)methyl]carbamate], the 50% inhibitory concentration (IC50) with MYC, with CCND1, in the assay with MCL-1 and in the assay on CCNTB1 was below 10 µM throughout.

As for `COc1ccc(C[C@H]2NC[C@H](O)[C@H]2OC(=O)NCc2ccccc2F)cc1` [V190520, (2R,3S,4S)-4-hydroxy-2-[(4-methoxyphenyl)methyl]pyrrolidin-3-yl N-[(2-fluorophenyl)methyl]carbamate], the IC50 in the assay with MYC is below 10 µM; in the assay with CCND1, 10 to 20 µM; in the assay with MCL-1, below 10 µM; with CCNTB1, below 10 µM.

In the case of `COc1ccc(C[C@H]2NC[C@H](O)[C@H]2OC(=O)NCc2ccc(F)cc2)cc1` [V188378, (2R,3S,4S)-4-hydroxy-2-[(4-methoxyphenyl)methyl]pyrrolidin-3-yl N-[(4-fluorophenyl)methyl]carbamate], the IC50 in the assay with MYC, in the assay with CCND1, with MCL-1 and in the assay on CCNTB1 was below 10 µM each time.

Take `COc1ccc(C[C@H]2NC[C@H](O)[C@H]2OC(=O)NCc2c(F)cccc2F)cc1` [V190521, (2R,3S,4S)-4-hydroxy-2-[(4-methoxyphenyl)methyl]pyrrolidin-3-yl N-[(2,6-difluorophenyl)methyl]carbamate]: the half-maximal inhibitory concentration (IC50) in the assay on MYC was 20 to 30 µM; with CCND1 it was above 30 µM; in the assay on MCL-1, 20 to 30 µM; in the assay with CCNTB1 it was 10 to 20 µM.

Consider `COc1ccc(C[C@H]2NC[C@H](O)[C@H]2OC(=O)NCCc2ccc3c(c2)CNC3)cc1` [V188344, (2R,3S,4S)-4-hydroxy-2-[(4-methoxyphenyl)methyl]pyrrolidin-3-yl N-[2-(2,3-dihydro-1H-isoindol-5-yl)ethyl]carbamate], for which the IC50 in the assay on MYC, with CCND1, with MCL-1 and in the assay with CCNTB1 was below 10 µM each time.

In the case of `COc1ccc(C[C@H]2NC[C@H](O)[C@H]2OC(=O)NCc2cccc(C(F)F)c2)cc1` [V191954, (2R,3S,4S)-4-hydroxy-2-[(4-methoxyphenyl)methyl]pyrrolidin-3-yl N-{[3-(difluoromethyl)phenyl]methyl}carbamate], the IC50 in the assay with MYC, in the assay on CCND1, with MCL-1 and in the assay with CCNTB1 was below 10 µM in each case.
